From the supplement of paper PMC10307832

Tests used:
Test in all cases: relative viability (nuclei count vs DMSO), 5 days (fraction); higher = more cells survive
Ruxolitinib + Foretinib = compound: N#CC[C@H](C1CCCC1)n1cc(-c2ncnc3[nH]ccc23)cn1 [Ruxolitinib] + COc1cc2c(Oc3ccc(NC(=O)C4(C(=O)Nc5ccc(F)cc5)CC4)cc3F)ccnc2cc1OCCCN1CCOCC1 [Foretinib] (partner 0.25 µM)
How it was run: (§1)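 A single step with final 0.05% Triton X-100, 1% formaldehyde and 1 ug/ml Hoechst fixed the cells and stained nuclei 5 days after treatment. Lung cancer cell lines in 1536-well plates had been treated by pin tool the day after seeding with one drug alone or a fixed anchor-drug dose plus five library-drug doses (not always all listed) in √10 steps, and nuclei were counted on 4× images. Relative viability is the ratio of nuclei in treated wells to nuclei in vehicle wells, taken as the median of duplicate plates.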

Ruxolitinib + Pemetrexed = compound: N#CC[C@H](C1CCCC1)n1cc(-c2ncnc3[nH]ccc23)cn1 [Ruxolitinib] + Nc1nc2[nH]cc(CCc3ccc(C(=O)N[C@@H](CCC(=O)O)C(=O)O)cc3)c2c(=O)[nH]1 [Pemetrexed] (partner 0.2 µM)
How it was run: as §1

Ruxolitinib + Dasatinib = compound: N#CC[C@H](C1CCCC1)n1cc(-c2ncnc3[nH]ccc23)cn1 [Ruxolitinib] + Cc1nc(Nc2ncc(C(=O)Nc3c(C)cccc3Cl)s2)cc(N2CCN(CCO)CC2)n1 [Dasatinib] (partner 0.075 µM)
How it was run: as §1

Ruxolitinib + Navitoclax = compound: N#CC[C@H](C1CCCC1)n1cc(-c2ncnc3[nH]ccc23)cn1 [Ruxolitinib] + CC1(C)CCC(c2ccc(Cl)cc2)=C(CN2CCN(c3ccc(C(=O)NS(=O)(=O)c4ccc(N[C@H](CCN5CCOCC5)CSc5ccccc5)c(S(=O)(=O)C(F)(F)F)c4)cc3)CC2)C1 [Navitoclax] (partner 0.5 µM)
How it was run: as §1

| Cell Line | relative viability (Ruxolitinib + Foretinib; first compound 0.08 µM) | relative viability (Ruxolitinib + Foretinib; first compound 0.8 µM) | relative viability (Ruxolitinib + Foretinib; first compound 2.53 µM) | relative viability (Ruxolitinib + Foretinib; first compound 8 µM) | relative viability (Ruxolitinib + Pemetrexed; first compound 0.08 µM) | relative viability (Ruxolitinib + Pemetrexed; first compound 0.253 µM) | relative viability (Ruxolitinib + Pemetrexed; first compound 0.8 µM) | relative viability (Ruxolitinib + Pemetrexed; first compound 2.53 µM) | relative viability (Ruxolitinib + Pemetrexed; first compound 8 µM) | relative viability (Ruxolitinib + Dasatinib; first compound 0.08 µM) | relative viability (Ruxolitinib + Dasatinib; first compound 0.253 µM) | relative viability (Ruxolitinib + Dasatinib; first compound 0.8 µM) | relative viability (Ruxolitinib + Dasatinib; first compound 2.53 µM) | relative viability (Ruxolitinib + Dasatinib; first compound 8 µM) | relative viability (Ruxolitinib + Navitoclax; first compound 0.08 µM) | relative viability (Ruxolitinib + Navitoclax; first compound 0.253 µM) | relative viability (Ruxolitinib + Navitoclax; first compound 0.8 µM) | relative viability (Ruxolitinib + Navitoclax; first compound 2.53 µM) | relative viability (Ruxolitinib + Navitoclax; first compound 8 µM) | relative viability (Ruxolitinib + Foretinib; first compound 0.253 µM) |
| --- | --- | --- | --- | --- | --- | --- | --- | --- | --- | --- | --- | --- | --- | --- | --- | --- | --- | --- | --- | --- |
| 201T | 1.11 | 1.43 | 1.1 | 1.26 | 0.336 | 0.338 | 0.389 | 0.325 | 0.299 | 0.571 | 0.593 | 0.67 | 0.558 | 0.558 | 1.25 | 1.31 | 1.44 | 1.48 | 1.36 | – |
| A549 | 0.926 | 1.08 | 0.834 | 0.632 | – | – | – | – | – | – | – | – | – | – | 1.2 | 1.16 | 1.21 | 0.961 | 0.508 | 0.926 |
| A-427 | 0.992 | 1.06 | 0.918 | 0.988 | 1 | 0.927 | 0.967 | 1.04 | 0.893 | 0.74 | 0.751 | 0.66 | 0.441 | 0.463 | 1 | 0.939 | 0.959 | 0.917 | 0.8 | 1.1 |
| ABC-1 | – | 1.33 | 0.975 | 0.99 | – | – | – | – | – | – | 0.53 | 0.547 | 0.64 | 0.45 | – | – | – | – | – | 1.35 |
| BEN | 0.773 | 0.729 | 0.62 | 0.612 | 0.534 | 0.744 | 0.818 | 0.688 | 0.95 | 0.319 | 0.311 | 0.377 | 0.292 | 0.335 | 0.0601 | 0.0767 | 0.0749 | 0.0665 | 0.0571 | 0.634 |
| CAL-12T | 1.19 | 1.17 | 0.899 | 0.777 | 1.15 | 1.18 | 1.22 | 0.993 | 0.802 | 0.497 | 0.546 | 0.561 | 0.25 | 0.163 | 1.1 | 1.23 | 1.14 | 1.15 | 1.07 | 1.15 |
| COR-L23 | 0.944 | 1.07 | 1 | 0.772 | 0.203 | 0.191 | 0.201 | 0.195 | 0.191 | 0.483 | 0.534 | 0.521 | 0.386 | 0.341 | 1.03 | 1.1 | 1.21 | 0.907 | 0.638 | 0.988 |
| COR-L 105 | 0.927 | 0.994 | 0.718 | 0.853 | – | 1 | 0.926 | 0.874 | 0.919 | 0.313 | 0.295 | 0.326 | 0.214 | 0.23 | 0.707 | 0.701 | 0.89 | 0.694 | 0.515 | 1.17 |
| Calu-6 | 0.936 | 0.99 | 0.81 | 0.523 | – | – | – | – | – | – | – | – | – | – | 0.836 | 0.858 | 0.862 | 0.767 | 0.294 | 0.884 |
| ChaGo-K-1 | 0.956 | 0.898 | 0.772 | 0.823 | 0.255 | 0.263 | 0.26 | 0.256 | 0.246 | 0.631 | 0.573 | 0.548 | 0.548 | 0.403 | – | 0.861 | 0.796 | 0.986 | 0.734 | 0.934 |
| EBC-1 | 0.0875 | 0.116 | 0.115 | 0.0903 | – | – | – | – | – | – | – | – | – | – | 0.372 | 0.435 | 0.402 | 0.347 | 0.237 | 0.0905 |
| EKVX | 0.234 | 0.768 | 0.795 | 0.311 | – | 0.403 | 0.41 | 0.402 | 0.237 | 0.523 | 0.603 | 0.481 | 0.519 | 0.366 | 1 | 0.872 | 0.881 | 0.821 | 0.912 | 0.698 |
| EMC-BAC-2 | 1.06 | 1.03 | 0.819 | 0.824 | 0.454 | 0.419 | 0.431 | 0.439 | 0.368 | 0.321 | 0.283 | 0.308 | 0.275 | 0.219 | 1.11 | 1.13 | 1.18 | 1.09 | 1.06 | 0.951 |
| EPLC-272H | 0.645 | 0.79 | 0.573 | 0.472 | 0.357 | 0.372 | 0.377 | 0.313 | 0.218 | 0.399 | 0.402 | 0.42 | 0.243 | 0.134 | 1.48 | 1.14 | 1.31 | 1.05 | 0.954 | 0.635 |
| H3255 | 0.747 | 0.968 | 0.95 | 0.836 | 0.506 | 0.553 | 0.569 | 0.528 | 0.473 | 0.301 | 0.402 | 0.421 | 0.282 | 0.31 | 0.248 | 0.393 | 0.474 | 0.423 | 0.425 | 0.91 |
| HARA | 0.882 | 1.05 | 0.879 | 0.806 | 0.206 | 0.27 | 0.225 | 0.221 | 0.229 | 0.224 | 0.323 | 0.305 | 0.195 | 0.22 | 1.14 | 1.11 | 1.17 | 1.14 | 1.25 | 0.851 |
| HCC-15 | 1.04 | 1.1 | 0.926 | 0.771 | 0.223 | 0.227 | 0.212 | 0.194 | 0.203 | 0.661 | 0.492 | 0.675 | 0.439 | 0.286 | 0.688 | 0.686 | 0.699 | 0.629 | 0.567 | 0.995 |
| HCC-44 | – | – | – | – | 0.632 | 0.694 | 0.646 | 0.571 | 0.641 | – | – | – | – | – | 0.991 | 1.14 | 0.966 | 0.664 | 0.394 | – |
